Data from a melting point compilation (Tetko et al.; mined from patent text by program, amines drawn as free bases though some values may be those of a salt).

Row | SMILES | melting point
1 | Fc1cc(F)c(-c2c(Cl)nc3nccn3c2NCC(F)(F)F)c(F)c1 | 155 to 157 °C
2 | Brc1cnn2ccc(N3CCNCC3)nc12 | 108 to 109 °C
3 | CC(=O)c1ccc(C=Cc2ccc(C(C)=O)s2)s1 | 248 °C
4 | C[Si](C)(C)N1CCCCCN([Si](C)(C)C)CCN([Si](C)(C)C)CC1 | 78 to 86.5 °C
5 | CS(=O)(=O)c1cccc(NC(=O)c2cnn3c(C(F)F)cc(-c4ccc(C(F)(F)F)cc4)nc23)c1 | 251 °C
6 | COc1ccc(CCN2CCC(Cc3nc4ncnc(O)c4n3Cc3ccc(F)cc3)CC2)cc1 | 122 °C
7 | CCc1cc2c(cc1C#Cc1ccc(C)cc1)C(C)(C)CCC2(C)C | 72 to 73 °C
8 | COc1ccc(/C=C/C(=O)C2C(=O)CC(c3ccc(OC)cc3)C([N+](=O)[O-])C2C2CCCCC2)cc1 (stereo unspecified) | 203 to 205 °C
9 | COc1ccc(C=C2CS(=O)(=O)CC(=Cc3ccc(OC)cc3)C2(O)NC2=NCCS2)cc1 (stereo unspecified) | 194 to 196 °C
10 | CC(C)(C)c1cc(C=Cc2ccccc2NC(=O)NC23CC4CC(CC(C4)C2)C3)cc(C(C)(C)C)c1O | 205 to 211 °C
11 | O=C1[C@H]2C[C@H](F)CN2C(=O)N1c1cc(NS(=O)(=O)CCl)c(Cl)cc1F | 147 to 151 °C
12 | COc1cc2c(Nc3ccc4cn[nH]c4c3)c(C#N)cnc2cc1OCCN(C)CC1OCCO1 | 185 to 187 °C
13 | C=CCSC(c1ccccc1)(c1ccccc1)c1ccccc1 | 99 to 101 °C
14 | Cn1cnc([N+](=O)[O-])c1CBr | 130 to 132 °C
15 | COc1ccc2c(c1)C(C)CCC2=O (stereo unspecified) | 57.5 to 58.5 °C
16 | CCN1CCC(c2ccccc2)=C(C(=O)OCC2CCCCC2)C1 | 94 to 97 °C
17 | Cc1c(-c2ccccc2)c(N2CCC(N(C)C)C2)c2oc(C(C)(C)CO)nc2c1C#N (stereo unspecified) | 175 to 178 °C
18 | CC(C)(C)OC(=O)N1CCC(CNC(=O)c2cc(Cl)c(N)c3c2OCC3)C(O)C1 (stereo unspecified) | 218 °C

Row | SMILES | melting point
19 | CN[C@H]1CCN(c2c(-c3csc(C)n3)c(C)c(C#N)c3nc(C(=O)N(C)C)oc23)C1 | 138 to 140 °C
20 | CCc1c(C(=O)C(N)=O)c2cc(OCCCC(=O)O)ccc2n1Cc1ccccc1 | 173 to 175 °C
21 | CCOC(=O)C(CC)(Cc1ccc(OCCN2CCCCC2)cc1)S(=O)(=O)c1ccc(OC)cc1 (stereo unspecified) | 75 °C
22 | Cc1c(Cc2ccc(N3C(=O)C=CC3=O)c(C)c2C)ccc(N2C(=O)C=CC2=O)c1C | 210 to 220 °C
23 | O=C(N[C@H](Cc1ccc(C(F)(F)F)cc1)[C@@H](O)c1cccc2ccccc12)c1ccc2ccccc2c1 (racemic) | 251 to 252 °C
24 | COc1ccc2c(c1OC)CCC=C2C#N | 139 to 140 °C
25 | CC1(C)CCC2=C(C1=O)C(c1ccc(F)c(Br)c1)C1=C(COCC1=O)N2 (stereo unspecified) | > 260 °C
26 | N#Cc1nc(-c2cnn(-c3c(Cl)cc(C(F)(F)F)cc3Cl)c2Br)[nH]c1C#N | 167 to 170 °C
27 | CSc1cccc(-c2coc3ccc(-c4nnc(C)o4)cc23)c1 | 99 to 100 °C
28 | COc1ccc(NC(=O)c2ccc(-c3ccc(-c4noc(C)n4)cc3C)cc2)cc1S(=O)CCN(C)C (stereo unspecified) | 204 to 206 °C
29 | CC(C)C(NC(=O)OC(C)(C)C)C(=O)OCN1C(=O)CCC(N2C(=O)c3ccccc3C2=O)C1=O (stereo unspecified) | 82 to 85 °C
30 | CC(C)c1cccc(C(C)C)c1NC(=O)NC(c1ccccc1)c1ccccc1 | 245 to 246 °C
31 | FC(F)(F)/C(=C(/c1ccccc1)c1ccc(OCCBr)cc1)c1ccccc1 | 135 to 138 °C
32 | CCCN(C)S(=O)(=O)c1cc(-n2c(=O)cc(C(F)(F)F)n(C)c2=O)ccc1Cl | 144 to 145 °C
33 | CC(=O)N1CCC(Oc2ccc(N3CCOCC3)cc2)CC1 | 208 to 209 °C
34 | CC(C)(CCBr)CC(=O)O | 53 to 55 °C
35 | COc1cc2c(=O)c(S(=O)(=O)N(C)C)cn(C)c2cc1C | 232 to 233 °C
36 | N#Cc1ccc(-c2cnco2)cc1 | 140 °C

Second part, the molecule after the results:

Row | melting point | SMILES
37 | 284 to 286 °C | O=C(O)Cc1sc(NC(=O)c2cc(Br)ccc2O)nc1-c1ccccc1
38 | 82 °C | CCc1ccc(N2CCOCC2)c(NC(C)=O)c1
39 | 236 to 239 °C | CC(C)c1ccc(-c2cc(C(=O)O)c(-c3cccc(C(=O)O)c3)o2)cc1
40 | 96 to 97 °C | CCOC(=O)C1=C(C(OCC)OCC)NC(C)=C(C(=O)OCCCl)C1c1cccc([N+](=O)[O-])c1 (stereo unspecified)
41 | 235 °C | CC(=O)c1ccc(-c2ccc(C(C)=O)s2)s1
42 | 118 to 119 °C | NCc1noc(-c2nn(Cc3ccccc3)c3ccccc23)n1
43 | 120 °C | O=C(O)c1[nH]cc(OCc2ccccc2)c(=O)c1Br
44 | 132 to 134 °C | COc1ccc(C(C)N(O)C(N)=O)cc1 (stereo unspecified)
45 | 59 to 61 °C | CCCCCCCCc1sc(NC(=O)c2cc3ccccc3n2CCC(=O)OCC)nc1-c1cc(OC)c(Cl)cc1OC
46 | 297 to 299 °C | NS(=O)(=O)c1ccc(-c2[nH]c3ccc(Cl)cc3c2-c2ccccc2)cc1
47 | 161 to 162 °C | Cc1nc(N)c2nc(CONC(C)C)n(CCCCNC(=O)c3ccccc3)c2c1C
48 | 140 °C | CC#CCOc1ccc(S(=O)(=O)C(C(=O)NO)c2ccc(Cl)cc2)cc1 (stereo unspecified)
49 | 160 to 163 °C | COC(=O)C1=C(C)NC(C)=C(S(C)(=O)=O)C1c1ccccc1C(F)(F)F (stereo unspecified)
50 | 233 to 234 °C | CNC(Cc1ccc2c(c1)Nc1nccnc1S2)=NC#N
51 | 156 to 157 °C | Cc1oc(-c2ccccc2)nc1Cc1cc2cc(/C=C/CO)ccc2o1
52 | 208 to 211 °C | O=C1CC2(CCCC2)CC(=O)N1c1ccncc1
53 | 269 to 271 °C | O=c1[nH]c(=S)[nH]cc1-c1ccccc1
54 | 211 to 213 °C | CC(=O)N[C@@H](CCc1ccc([N+](=O)[O-])cc1)C(=O)O

Row | melting point | SMILES
55 | 170 to 172 °C | N#Cc1ccc(Nc2cccc(I)c2)c(N)c1
56 | 131 to 133 °C | NCCSc1ncccc1C(N)=O
57 | 210 to 215 °C | O=C(O)c1cc(S(=O)(=O)Cl)cc2c1OCCO2
58 | 173 to 175 °C | COC(=O)c1cccc2oc(SCCN3CCN(CC(=O)Nc4c(C(C)C)cccc4C(C)C)CC3)nc12
59 | > 300 °C | O=C(O)c1cc2c(Cl)ccc(Br)c2s1
60 | 100 to 101 °C | CC(C)CN1C(=O)C2CC2(c2ccc(N)cc2)C1=O (stereo unspecified)
61 | > 300 °C | CNc1cc2c(cn1)c(=O)n1nccc1n2C
62 | 193 to 194 °C | Cc1nc2c(O)c(CCC(=O)c3ccccc3OCc3ccccc3)c(C(=O)N(C)C)cc2n1C
63 | 95 °C | O=C(Nc1ccc(C2CN(C(=O)OCc3ccccc3)C2)c(F)c1)OCc1ccccc1
64 | 240 to 241 °C | COc1ccc(-c2c(C(=O)O)c(=O)[nH]c3ccc(C)cc23)cc1OC
65 | 166 °C | CC(C)(C)OC(=O)CCc1cccc(-c2nc(=O)c3ccccc3s2)n1
66 | 84 to 85 °C | CCCCC(=O)Nc1c(C(=O)OC)cc(Cl)cc1[N+](=O)[O-]
67 | 81 to 82 °C | Cc1coc(N(CCCC(=O)O)C(=O)C(C)C)n1
68 | 160 to 161 °C | COc1ccc(C(=O)NCC(=O)N2c3ccccc3N(Cc3ccccc3)C(=O)[C@H]3CCC[C@H]32)cc1 (relative stereo)
69 | 76 to 80 °C | COc1c(C)cnc(Cn2c(SC/C=C(\C)CCC=C(C)C)nc3ccccc32)c1C
70 | 94 to 95 °C | COc1ccc(C=C(Br)Br)cc1O
71 | 122 to 126 °C | CCN(CC)CCCOc1ccc(C(=O)c2oc3ccccc3c2-c2ccccc2)cc1
